Assays:
[1] = test system: SNU1; test: cells; conditions: Homo sapiens, SNU1, 72 h
Description: Cytotoxicity against human SNU1 cells assessed as inhibition of cell growth measured after 72 hrs by cell titer glo assay

[2] = Drug exposure in BALB/cA mouse assessed as AUC(0 to 6 hrs) of drug at 50 mg/kg, po measured after 6 hrs by LC-MS analysis; type: ADME, organism-based; set-up: dose 50 mg/kg, time 6 hrs, route po; conditions: in vivo
[3] = Lipophilicity, logD of the compound at pH 7.4; type: physicochemical; conditions: buffer
[4] = test system: SNU-16; test: cells; conditions: Homo sapiens, SNU-16, 72 h
Description: Cytotoxicity against human SNU-16 cells assessed as inhibition of cell growth measured after 72 hrs by cell titer glo assay

[5] = Microsomal stability in mouse liver microsomes assessed as parent compound remaining measured after 30 mins in presence of NADPH generating system by LC-MS analysis; type: ADME, Microsome; conditions: read-out: Stability
[6] = Microsomal stability in human liver microsomes assessed as parent compound remaining measured after 30 mins in presence of NADPH generating system by LC-MS analysis; type: ADME, Microsome; conditions: read-out: Stability
[7] = biological target: Epidermal growth factor receptor (Homo sapiens, UniProt P00533, EX19DEL/T790M); test: Inhibition of recombinant human EGFR del19/T790M using biotinEEPLYWSFPAKKK-NH2 as substrate incubated for 120 mins by TR-FRET assay
[8] = biological target: Fibroblast growth factor receptor 2 (Homo sapiens, UniProt P21802)
Description: Inhibition of human recombinant cytoplasmic domain FGFR2 (8 to 134 residues) incubated for 120 mins by mobility shift assay

[9] = biological target: Fibroblast growth factor receptor 1 (Homo sapiens) (UniProt P11362); test: Inhibition of partial length wild type human FGFR1 (P357 to V669 residues) expressed in bacterial expression system at 100 uM by Kinome scan method relative to control
[10] = biological target: Vascular endothelial growth factor receptor 2 (Homo sapiens, UniProt P35968)
Description: Inhibition of N-terminal GST tagged recombinant human VEGFR2 (aa805 to 1356 residues) expressed in baculovirus expression system using Poly- (Glu4:Tyr)-biotin as substrate incubated for 80 mins in presence of ATP by kinase glo method

[11] = biological target: T1, Mitogen-activated protein kinase 12 (Homo sapiens) (UniProt P53778); test: Inhibition of human full length wild type MAPK12 (M1 to L367 residues) expressed in mammalian expression system at 100 uM by Kinome scan method relative to control
T1 sequence (whole entry): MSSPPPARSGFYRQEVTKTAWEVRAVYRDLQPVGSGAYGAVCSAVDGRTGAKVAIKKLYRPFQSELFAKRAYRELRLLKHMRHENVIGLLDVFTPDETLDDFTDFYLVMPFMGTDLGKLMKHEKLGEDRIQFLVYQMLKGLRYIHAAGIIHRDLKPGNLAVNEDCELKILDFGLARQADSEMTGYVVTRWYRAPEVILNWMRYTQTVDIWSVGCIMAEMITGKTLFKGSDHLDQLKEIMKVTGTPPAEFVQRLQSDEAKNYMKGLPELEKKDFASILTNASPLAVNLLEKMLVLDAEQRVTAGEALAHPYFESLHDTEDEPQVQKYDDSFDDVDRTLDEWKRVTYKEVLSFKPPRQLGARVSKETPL

[12] = biological target: Insulin receptor (Homo sapiens) (UniProt P06213); test: Inhibition of human wild type partial length INSR (P997 to E1318 resides) expressed in mammalian expression system at 100 uM by Kinome scan method relative to control
[13] = biological target: Fibroblast growth factor receptor 3 (Homo sapiens) (UniProt P22607); test: Inhibition of wild type human partial length FGFR3 (R442 to S771 residues) expressed in bacterial expression system at 100 uM by Kinome scan method relative to control
Sequence of Fibroblast growth factor receptor 3 (Homo sapiens) (P22607 23-806 limits assumed): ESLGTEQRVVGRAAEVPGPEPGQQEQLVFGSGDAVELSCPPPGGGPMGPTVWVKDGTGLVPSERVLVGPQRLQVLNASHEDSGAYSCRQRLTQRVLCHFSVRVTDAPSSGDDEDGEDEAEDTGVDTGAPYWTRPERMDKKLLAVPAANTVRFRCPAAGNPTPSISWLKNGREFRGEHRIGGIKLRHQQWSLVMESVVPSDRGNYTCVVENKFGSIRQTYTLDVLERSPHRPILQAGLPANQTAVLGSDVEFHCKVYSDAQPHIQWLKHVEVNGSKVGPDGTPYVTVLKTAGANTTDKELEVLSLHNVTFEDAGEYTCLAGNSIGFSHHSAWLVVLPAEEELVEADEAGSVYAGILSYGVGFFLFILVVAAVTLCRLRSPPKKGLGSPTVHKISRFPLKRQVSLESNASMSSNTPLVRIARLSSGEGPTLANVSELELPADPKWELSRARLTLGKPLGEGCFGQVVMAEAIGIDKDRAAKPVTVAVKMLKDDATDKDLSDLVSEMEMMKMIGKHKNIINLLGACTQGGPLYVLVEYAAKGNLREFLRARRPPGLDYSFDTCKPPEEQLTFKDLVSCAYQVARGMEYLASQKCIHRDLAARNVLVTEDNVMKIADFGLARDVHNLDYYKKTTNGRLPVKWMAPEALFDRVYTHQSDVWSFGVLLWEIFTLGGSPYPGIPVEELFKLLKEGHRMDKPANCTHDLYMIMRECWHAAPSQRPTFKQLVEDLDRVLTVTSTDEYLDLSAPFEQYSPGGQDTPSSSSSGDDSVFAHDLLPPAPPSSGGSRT

Sequence of Fibroblast growth factor receptor 2 (P21802 whole entry, the tested form may be a part): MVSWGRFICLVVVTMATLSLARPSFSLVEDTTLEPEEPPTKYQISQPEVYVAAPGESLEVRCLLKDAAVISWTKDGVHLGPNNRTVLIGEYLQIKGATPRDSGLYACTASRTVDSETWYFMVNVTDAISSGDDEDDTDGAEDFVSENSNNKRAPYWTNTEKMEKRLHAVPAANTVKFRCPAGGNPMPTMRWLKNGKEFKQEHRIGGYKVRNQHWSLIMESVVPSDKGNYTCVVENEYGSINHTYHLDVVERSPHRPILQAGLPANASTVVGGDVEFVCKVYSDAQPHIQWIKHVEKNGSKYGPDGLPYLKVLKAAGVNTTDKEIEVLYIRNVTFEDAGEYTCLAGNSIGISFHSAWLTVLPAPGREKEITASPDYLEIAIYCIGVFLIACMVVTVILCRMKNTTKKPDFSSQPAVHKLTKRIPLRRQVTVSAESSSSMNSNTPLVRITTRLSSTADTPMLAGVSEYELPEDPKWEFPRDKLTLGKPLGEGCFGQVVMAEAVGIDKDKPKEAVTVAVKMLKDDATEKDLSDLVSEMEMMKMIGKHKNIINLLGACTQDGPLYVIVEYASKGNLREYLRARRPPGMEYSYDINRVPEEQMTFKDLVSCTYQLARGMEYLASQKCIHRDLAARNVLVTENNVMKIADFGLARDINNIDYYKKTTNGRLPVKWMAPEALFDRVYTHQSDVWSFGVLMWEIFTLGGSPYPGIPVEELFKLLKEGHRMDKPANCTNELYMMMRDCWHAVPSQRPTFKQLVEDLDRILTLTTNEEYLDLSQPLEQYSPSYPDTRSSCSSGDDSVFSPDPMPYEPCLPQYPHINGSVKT
Sequence of Epidermal growth factor receptor (P00533 whole entry, looked up, stated change not applied): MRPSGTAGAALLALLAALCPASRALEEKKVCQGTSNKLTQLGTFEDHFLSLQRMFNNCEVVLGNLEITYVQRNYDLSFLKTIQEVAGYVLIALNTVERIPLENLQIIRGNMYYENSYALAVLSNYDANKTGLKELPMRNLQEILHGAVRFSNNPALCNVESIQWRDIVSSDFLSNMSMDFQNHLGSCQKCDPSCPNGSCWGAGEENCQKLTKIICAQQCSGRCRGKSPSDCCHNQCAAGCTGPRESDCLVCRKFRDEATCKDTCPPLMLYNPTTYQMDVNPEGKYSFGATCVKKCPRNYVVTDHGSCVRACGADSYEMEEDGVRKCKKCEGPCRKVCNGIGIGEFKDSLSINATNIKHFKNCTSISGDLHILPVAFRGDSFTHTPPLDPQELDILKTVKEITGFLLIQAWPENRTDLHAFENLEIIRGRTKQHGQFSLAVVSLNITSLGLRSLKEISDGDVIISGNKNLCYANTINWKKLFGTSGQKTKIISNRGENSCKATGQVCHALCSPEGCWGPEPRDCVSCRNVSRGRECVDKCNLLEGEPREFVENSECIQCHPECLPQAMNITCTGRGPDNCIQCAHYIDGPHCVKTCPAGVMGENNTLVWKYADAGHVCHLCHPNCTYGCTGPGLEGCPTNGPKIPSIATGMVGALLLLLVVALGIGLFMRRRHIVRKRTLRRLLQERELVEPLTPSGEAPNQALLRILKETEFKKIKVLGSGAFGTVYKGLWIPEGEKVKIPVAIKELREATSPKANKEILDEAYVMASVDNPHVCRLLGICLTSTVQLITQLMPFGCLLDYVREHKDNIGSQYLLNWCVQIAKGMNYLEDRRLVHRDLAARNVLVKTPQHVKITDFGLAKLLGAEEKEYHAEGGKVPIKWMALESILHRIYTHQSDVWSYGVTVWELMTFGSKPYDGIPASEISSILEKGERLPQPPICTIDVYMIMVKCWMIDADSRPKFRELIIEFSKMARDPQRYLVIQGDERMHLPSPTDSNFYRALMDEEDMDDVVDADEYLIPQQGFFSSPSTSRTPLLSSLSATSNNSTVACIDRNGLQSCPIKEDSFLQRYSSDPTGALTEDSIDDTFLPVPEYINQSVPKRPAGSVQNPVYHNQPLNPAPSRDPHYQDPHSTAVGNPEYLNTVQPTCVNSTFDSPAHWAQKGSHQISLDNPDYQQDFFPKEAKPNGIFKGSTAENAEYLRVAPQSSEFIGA
Sequence of Vascular endothelial growth factor receptor 2 (P35968 whole entry, the tested form may be a part): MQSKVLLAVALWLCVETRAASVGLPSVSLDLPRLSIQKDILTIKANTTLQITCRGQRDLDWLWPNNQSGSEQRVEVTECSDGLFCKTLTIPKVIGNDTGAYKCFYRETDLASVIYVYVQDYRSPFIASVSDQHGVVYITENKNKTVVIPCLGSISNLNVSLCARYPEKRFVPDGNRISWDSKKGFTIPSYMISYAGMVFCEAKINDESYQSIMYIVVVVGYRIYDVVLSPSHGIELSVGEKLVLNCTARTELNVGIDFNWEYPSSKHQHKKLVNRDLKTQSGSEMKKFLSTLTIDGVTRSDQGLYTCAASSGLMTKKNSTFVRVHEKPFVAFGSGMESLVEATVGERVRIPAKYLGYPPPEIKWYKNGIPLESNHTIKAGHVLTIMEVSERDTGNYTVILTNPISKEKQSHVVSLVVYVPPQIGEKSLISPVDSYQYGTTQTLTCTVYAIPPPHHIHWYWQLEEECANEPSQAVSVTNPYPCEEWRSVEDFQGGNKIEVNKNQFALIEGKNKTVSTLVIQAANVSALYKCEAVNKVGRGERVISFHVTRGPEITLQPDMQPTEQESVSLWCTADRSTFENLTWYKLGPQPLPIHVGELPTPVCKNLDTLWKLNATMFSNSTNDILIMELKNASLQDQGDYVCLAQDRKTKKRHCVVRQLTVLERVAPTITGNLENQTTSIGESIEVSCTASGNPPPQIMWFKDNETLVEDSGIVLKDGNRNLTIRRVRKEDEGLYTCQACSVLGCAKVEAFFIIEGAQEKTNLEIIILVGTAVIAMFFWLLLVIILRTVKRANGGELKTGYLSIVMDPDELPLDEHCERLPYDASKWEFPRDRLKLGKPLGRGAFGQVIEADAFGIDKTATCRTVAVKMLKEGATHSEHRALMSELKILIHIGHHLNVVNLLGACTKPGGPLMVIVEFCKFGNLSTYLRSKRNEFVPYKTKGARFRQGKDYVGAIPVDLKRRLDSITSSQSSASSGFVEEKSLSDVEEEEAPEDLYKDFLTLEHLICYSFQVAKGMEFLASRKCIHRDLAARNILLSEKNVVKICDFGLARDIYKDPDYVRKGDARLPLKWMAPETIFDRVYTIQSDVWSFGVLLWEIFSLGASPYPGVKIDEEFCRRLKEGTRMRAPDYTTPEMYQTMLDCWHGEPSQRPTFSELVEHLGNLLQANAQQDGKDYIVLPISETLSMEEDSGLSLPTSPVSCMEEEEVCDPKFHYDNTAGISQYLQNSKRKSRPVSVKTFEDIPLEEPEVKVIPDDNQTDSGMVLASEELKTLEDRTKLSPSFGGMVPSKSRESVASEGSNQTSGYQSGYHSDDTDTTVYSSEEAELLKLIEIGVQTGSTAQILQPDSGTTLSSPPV
Sequence of Fibroblast growth factor receptor 1 (Homo sapiens) (P11362 22-822 limits assumed): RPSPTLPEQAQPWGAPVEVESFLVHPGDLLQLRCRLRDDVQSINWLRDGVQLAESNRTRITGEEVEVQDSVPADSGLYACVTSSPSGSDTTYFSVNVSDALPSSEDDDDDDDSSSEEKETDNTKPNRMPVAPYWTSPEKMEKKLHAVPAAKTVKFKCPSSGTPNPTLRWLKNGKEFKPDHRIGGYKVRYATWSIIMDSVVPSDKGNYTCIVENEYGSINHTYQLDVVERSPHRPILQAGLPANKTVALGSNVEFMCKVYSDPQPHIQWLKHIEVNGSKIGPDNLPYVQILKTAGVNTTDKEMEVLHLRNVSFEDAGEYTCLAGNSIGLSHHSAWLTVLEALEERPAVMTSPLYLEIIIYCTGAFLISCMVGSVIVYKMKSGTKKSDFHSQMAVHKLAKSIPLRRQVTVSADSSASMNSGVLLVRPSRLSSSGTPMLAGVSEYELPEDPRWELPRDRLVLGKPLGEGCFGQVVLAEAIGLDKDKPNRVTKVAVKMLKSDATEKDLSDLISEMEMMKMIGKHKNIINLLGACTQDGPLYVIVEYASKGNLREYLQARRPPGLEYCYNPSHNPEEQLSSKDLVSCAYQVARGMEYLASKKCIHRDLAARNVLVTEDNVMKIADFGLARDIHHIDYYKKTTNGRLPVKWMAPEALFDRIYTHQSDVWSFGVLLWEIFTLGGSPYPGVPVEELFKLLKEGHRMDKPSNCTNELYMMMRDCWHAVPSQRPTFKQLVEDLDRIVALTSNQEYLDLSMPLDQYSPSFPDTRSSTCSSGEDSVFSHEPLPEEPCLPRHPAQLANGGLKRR

COc1cc(C#Cc2nn(C3CN(C(=O)/C=C/CN(C)C)C3)c3ncnc(N)c23)cc(OC)c1
IC50 [1]: > 5000 nM
AUC(0-t) at 6 h [2]: 1.27 µM·h
logD [3]: 2.3
IC50 [4]: 8.4 nM
remaining at 0.5 h [5]: 98%
remaining at 0.5 h [6]: 77%

C=CC(=O)N1CC[C@H](n2nc(CCc3cc(OC)cc(OC)c3)c3c(N)ncnc32)C1
IC50 [7]: > 5000 nM
IC50 [8]: 239 nM

C=CC(=O)N1CCC(n2nc(C#Cc3cc(OC)cc(OC)c3)c3c(N)ncnc32)CC1
IC50 [1]: > 5000 nM
IC50 [4]: 33 nM

C=CC(=O)N1CCC(n2cc(-c3cnc4ccccc4c3)c3c(N)ncnc32)C1 (racemic)
IC50 [7]: 1.2 nM
IC50 [8]: 57 nM

C=CC(=O)N1CC[C@H](n2nc(C#Cc3cc(OC)cc(OC)c3)c3c(N)ncnc32)C1 [FUTIBATINIB]
inhibition [9]: 99.1%
IC50 [1]: > 5000 nM
AUC(0-t) at 6 h [2]: 23.9 µM·h
logD [3]: 3.4
IC50 [4]: 3.7 nM
IC50 [10]: 2360 nM
inhibition [11]: 69%
IC50 [7]: > 5000 nM
remaining at 0.5 h [5]: 69%
inhibition [12]: 55%
remaining at 0.5 h [6]: 66%
inhibition [13]: 97.8%

C=CC(=O)N1CC[C@H](n2cc(-c3cnc4ccccc4c3)c3c(N)ncnc32)C1
IC50 [7]: 111 nM
IC50 [8]: 17 nM

C=CC(=O)N1CC(Cn2nc(C#Cc3cc(OC)cc(OC)c3)c3c(N)ncnc32)C1
IC50 [1]: > 5000 nM
IC50 [4]: 32 nM

C=CC(=O)N1CC[C@@H](n2cc(-c3cnc4ccccc4c3)c3c(N)ncnc32)C1
IC50 [7]: 0.4 nM
IC50 [8]: 313 nM

COc1cc(C#Cc2nn([C@H]3CCN(C(=O)/C=C/CN(C)C)C3)c3ncnc(N)c23)cc(OC)c1
IC50 [1]: > 5000 nM
IC50 [4]: 43 nM

CCC(=O)N1CC[C@H](n2nc(C#Cc3cc(OC)cc(OC)c3)c3c(N)ncnc32)C1
IC50 [1]: > 5000 nM
IC50 [4]: 1420 nM
IC50 [7]: > 5000 nM

C=CC(=O)N1CC[C@H](n2nc(C(=O)Nc3cc(OC)cc(OC)c3)c3c(N)ncnc32)C1
IC50 [7]: > 5000 nM
IC50 [8]: 670 nM

C=CC(=O)N1CC(n2nc(C#Cc3cc(OC)cc(OC)c3)c3c(N)ncnc32)C1
IC50 [1]: > 5000 nM
AUC(0-t) at 6 h [2]: 0.07 µM·h
logD [3]: 3
IC50 [4]: 7.4 nM
remaining at 0.5 h [5]: 92%
remaining at 0.5 h [6]: 83%

C=CC(=O)N1CC[C@H](n2nc(-c3cnc4ccccc4c3)c3c(N)ncnc32)C1
IC50 [7]: 741 nM
IC50 [8]: 255 nM

C=CC(=O)N1CC[C@H](n2nc(-c3cc(OC)cc(OC)c3)c3c(N)ncnc32)C1
IC50 [7]: > 5000 nM

C=CC(=O)N1CC[C@@H](n2nc(-c3cnc4ccccc4c3)c3c(N)ncnc32)C1
IC50 [7]: 5.4 nM
IC50 [8]: 2260 nM

C=CC(=O)N1CC[C@@H](n2nc(C#Cc3cc(OC)cc(OC)c3)c3c(N)ncnc32)C1
IC50 [1]: > 5000 nM
IC50 [4]: 113 nM
IC50 [10]: 1490 nM

C=CC(=O)NCCn1nc(C#Cc2cc(OC)cc(OC)c2)c2c(N)ncnc21
IC50 [1]: > 5000 nM
IC50 [4]: 362 nM

Reference: ChEMBL document CHEMBL5252660 (ACS Med Chem Lett, 2023)
